According to patent publication US7883708B2, “Substance derived from basidiomycetes culture, method for producing it and its use” (Amino Up Chemical Co., Ltd., priority 1999, dated 2011):
Converted amounts (≈) assume the structure as drawn.

Key:
Assay in all cases: 50% growth suppression concentration (IC50) of tumor cells (MTT)
Type in all cases: cell-based
[1] = tested on: LNCAP human prostatic cells; settings: 48 hours, read-out: IC50 (μg/ml) LNCaP
Description: (§1) 3LL mouse lung cancer cells, Colon 26 mouse colorectal cancer cells, PC3 human prostatic cancer cells, Du145 human prostatic cells, and LNCAP human prostatic cells were used and 50% suppression concentrations (IC50) of Invention Substance 1, genistein standard preparation (produced by Sigma) and basidiomycetes culture (product obtained by cultivating basidiomycetes in the absence of isoflavones-containing material under the same conditions as in Example 1) on these cells were examined.
(§2) That is, Invention Substance 1, genistein standard preparation or basidiomycetes culture was suspended in distilled water and were autoclaved and added to the cells in a continuously varied concentration of from 1,000 μg/ml to 0.1 μg/ml. The tumor cell suspension was adjusted to 1-2×10^5 cells/well with DMEM medium containing 10% FBS and cultivated at 37° C. for 48 hours. Then, after addition of Invention Substance 1 or genistein standard preparation, the cells were further cultivated for additional 48 hours, followed by examining cell growth by the MTT method using a microplate reader. Lower numerical values indicate that 50% suppression of the growth of cultured cancer cells is possible at lower concentrations.

[2] = tested on: Colon 26 mouse colorectal cancer cells; settings: 48 hours, read-out: IC50 (μg/ml) Colon 26
Description: as §1, §2

[3] = tested on: PC3 human prostatic cancer cells; settings: 48 hours, read-out: IC50 (μg/ml) PC3
Description: as §1, §2

[4] = tested on: 3LL mouse lung cancer cells; settings: 48 hours, read-out: IC50 (μg/ml) 3LL
Description: as §1, §2

[5] = tested on: Du145 human prostatic cells; settings: DU-145, 48 hours, read-out: IC50 (μg/ml) Du145
Description: as §1, §2

Compound `O=c1c(-c2ccc(O)cc2)coc2cc(O)cc(O)c12` [Genistein standard preparation, genistein] has an IC50 [1] of 69.4 µg/mL (≈ 257 µM), an IC50 [2] of 51.2 µg/mL (≈ 190 µM) and an IC50 [3] of 35.8 µg/mL (≈ 132 µM). The IC50 [4] was 31.8 µg/mL (≈ 118 µM) and the IC50 [5] was 55.3 µg/mL (≈ 205 µM).
